Test results as given in publication PMC6332026, “Synthesis and Pharmacochemistry of New Pleiotropic Pyrrolyl Derivatives” (Molecules, 2015).

What was measured:
[1] = Lipophilicity as RM values by reverse-phase thin layer chromatography (RPTLC); type: physicochemical; settings: methanol/water 75/25 v/v with ammonia drops
Excerpt: Since lipophilicity is a significant physicochemical property determining the absorption, distribution, metabolism and excretion properties (ADME) of drugs, we attempted to determine experimentally the lipophilicity as RM values with reverse-phase thin layer chromatography (RPTLC). Lipophilicity was also theoretically calculated as Clog P values. According to the calculated Clog P values, the most lipophilic compounds were 2iii (6.37) and 2v (6.04). However, this observation was not supported by the RM values, since Compound 2iii presented very low lipophilicity (−0.061). Furthermore, the lipophilicity of Compound 2v could not be determined experimentally under the reported conditions. Attempts to correlate Clog P and RM values failed. From our results (Table 2), it can be concluded that RM values could not be used as a successful relative measure of the overall lipophilic/hydrophilic properties of these molecules. Tentatively, this can be attributed to the different nature of the hydrophilic and lipophilic phases in the two systems. Clog P refers to n-octanol/water, whereas RM in this case refers to methanol/water. Moreover, it is likely that pyrrole derivatives form hydrogen bonds within the hydrophilic phase.
Reverse-phase thin layer chromatography (RPTLC) was used for the determination of RM values. Silica gel plates were saturated with 5% v/v liquid paraffin in petroleum ether, and the mobile phase was methanol/water (75/25 v/v) with the addition of ammonia drops. Spots were detected under UV light. RM values were determined by the corresponding Rf values (from five measurements for each compound) using the equation [43]: RM = log[(1/Rf) − 1](1)

[2] = molecular target: T1, soybean lipoxygenase (Glycine max, UniProt P08170); assay: Inhibition of soybean lipoxygenase (UV absorbance-based enzyme assay); type: biochemical; settings: for inhibition at 100 µM: read-out: LOX % inhibition
T1 construct: purchased Sigma Chemical, Co. (St. Louis, MO, USA)
T1 sequence (P08170 1-839): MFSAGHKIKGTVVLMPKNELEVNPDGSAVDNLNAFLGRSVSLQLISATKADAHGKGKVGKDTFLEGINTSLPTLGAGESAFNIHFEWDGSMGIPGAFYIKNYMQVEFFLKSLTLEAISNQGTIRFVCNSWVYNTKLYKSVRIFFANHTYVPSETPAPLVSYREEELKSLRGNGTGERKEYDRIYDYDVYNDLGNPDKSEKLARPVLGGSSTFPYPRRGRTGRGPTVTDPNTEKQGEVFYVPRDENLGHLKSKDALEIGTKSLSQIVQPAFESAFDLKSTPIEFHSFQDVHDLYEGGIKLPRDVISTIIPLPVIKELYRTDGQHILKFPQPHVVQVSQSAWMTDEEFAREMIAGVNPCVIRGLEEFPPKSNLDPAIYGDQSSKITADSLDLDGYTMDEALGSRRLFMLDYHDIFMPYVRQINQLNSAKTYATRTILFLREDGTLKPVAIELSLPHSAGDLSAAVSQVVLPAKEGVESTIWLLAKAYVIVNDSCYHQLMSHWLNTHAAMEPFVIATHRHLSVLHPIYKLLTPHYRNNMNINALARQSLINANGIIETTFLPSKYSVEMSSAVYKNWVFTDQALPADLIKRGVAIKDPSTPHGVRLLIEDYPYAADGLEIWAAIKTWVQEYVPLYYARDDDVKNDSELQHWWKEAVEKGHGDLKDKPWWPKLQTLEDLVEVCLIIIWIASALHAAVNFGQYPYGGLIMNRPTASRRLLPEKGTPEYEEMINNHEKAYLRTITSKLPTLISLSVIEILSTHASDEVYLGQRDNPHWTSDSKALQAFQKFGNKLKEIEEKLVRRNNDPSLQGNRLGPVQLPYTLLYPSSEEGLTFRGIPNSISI
Protocol: Lipoxygenase catalyzes the first two steps in the metabolism of arachidonic acid to leukotrienes. LTB4 generation is important in the pathogenesis of neutrophil-mediated inflammatory diseases with a marked relation to the severity of cardiovascular diseases, asthma and cancer. We evaluated the synthesized pyrroles for their ability to inhibit soybean LOX by the UV absorbance-based enzyme assay. […] The inhibition of COX-2, as a peroxidase, was determined by a colorimetric assay with the oxidation of N,N,N′,N′-tetramethyl-p-phenylenediamine (TMPD).
The tested compounds were dissolved in DMSO, and the final concentration was 100 μΜ. The compounds were incubated at room temperature with sodium linoleate as a substrate (0.1 mL) in a buffer solution of Tris:HCl (pH 9.00) and 0.2 mL of a solution of soybean lipoxygenase.

[3] = molecular target: T2, trypsin (Bos taurus, UniProt P00760); assay: Inhibition of the proteolytic activity of trypsin; type: biochemical; settings: bovine albumin substrate, pH 7.6; read-out: TP IC50 (inhibition of trypsin)
T2 construct: purchased Sigma Chemical, Co. (St. Louis, MO, USA); host or cells: bovine pancreas
T2 sequence (P00760 24-246): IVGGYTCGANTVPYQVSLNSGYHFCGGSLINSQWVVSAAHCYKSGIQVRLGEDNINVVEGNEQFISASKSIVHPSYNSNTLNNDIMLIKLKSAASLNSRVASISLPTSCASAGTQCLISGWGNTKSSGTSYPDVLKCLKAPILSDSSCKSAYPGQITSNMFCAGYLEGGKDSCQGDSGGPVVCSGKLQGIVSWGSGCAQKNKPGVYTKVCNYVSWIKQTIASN
Excerpt: Trypsin is an enzyme with an active role in inflammation. Thus, we studied the anti-proteolytic ability of the pyrrole derivatives, using salicylic acid as a reference compound. […] Comparing Compounds 2iv and 2v, the insertion of an electron-acceptor substituent (Cl) on the phenyl ring (substituent Ar^2) and the simultaneous increase of the volume of substituent Ar^2 (expressed as molar refractivity) led to an enhancement of the anti-proteolytic activity.
Carrageenan, type K, was commercially available. Cycloxygenase-2 (COX-2) and interleukin-6 (IL-6) EIA Kit, Item No. 583371 were purchased from Cayman. Trolox was obtained from Aldrich Chemical Co. (Milwaukee, WI, USA). All starting materials were obtained from commercial sources, and they were used without further purification.
The tested compounds (concentrations varying from 10 μΜ–100 μΜ in DMSO) were dissolved in a phosphate buffer (0.1 M K2HPO4–NaH2PO4·2H2O, pH = 7.6), and 0.2 mL of trypsin 0.075 mg/mL were added. The mixture was incubated at room temperature for 20 min, and then, 1 mL of bovine albumin (6 g/100 mL) was added. The mixture was incubated at 37 °C for 30 min. The reaction was stopped with the addition of 1 mL of trichloroacetic acid (5% w/w) Separation of the phases followed, with measurement of the supernatants at 280 nm at room temperature. IC50 values were determined.

O=C(c1cccs1)c1c[nH]cc1-c1cccc(Oc2ccccc2)c1 [Compound 2i, [4-(3-Phenoxyphenyl)-1H-pyrrol-3-yl](thien-2-yl)methanone]
RM [1]: 0.091 | IC50 ([2]; pH 9.00, read-out: LOX IC50): 1000 µM | IC50 [3]: 60 µM | melting point: 165 to 166 °C

O=C(c1cccs1)c1c[nH]cc1-c1ccc(OCc2ccc(Br)cc2)cc1 [Compound 2iii, (4-{4-[(4-Bromobenzyl)oxy]phenyl}-1H-pyrrol-3-yl)(thien-2-yl)methanone]
RM [1]: −0.061 | IC50 [3]: 9 µM | melting point: 233 to 235 °C

O=C(c1ccccc1)c1c[nH]cc1-c1cccc2ccccc12 [Compound 2iv, [4-(Naphth-1-yl)-1H-pyrrol-3-yl](phenyl)methanone]
RM [1]: −0.149 | inhibition at 100 µM [2]: 10% | IC50 [3]: 65 µM | melting point: 270 to 272 °C

O=C(c1ccc(Cl)cc1)c1c[nH]cc1-c1cccc2ccccc12 [Compound 2v, (4-Chlorophenyl)[4-(naphth-1-yl)-1H-pyrrol-3-yl]methanone]
inhibition at 100 µM [2]: 32% | IC50 [3]: 8 µM | melting point: 285 to 286 °C
